According to patent US10695355B2, “Methods for pharmacologic treatment of stroke” (University of Connecticut, priority 2017, dated 2020):

Tests used:
[1] = test system: Middle Cerebral Artery occlusion (MCAo) model, male C57B/6 mice; experiment: Neurological deficit (ND) score after MCAo stroke; assay type: in vivo
Excerpt: (§1) Middle cerebral artery occlusion and bilateral ovariectomy: We induced focal transient cerebral ischemia by a 60-minute right middle cerebral artery occlusion (MCAo) under isoflurane anesthesia followed by reperfusion for either 3, 15, or 30 days. […] The 15- and 30-day time points represent sub-acute and chronic recovery as discussed in the art. Briefly, we performed a midline ventral neck incision and unilateral right MCAo by advancing a 6.0 silicone rubber-coated monofilament (Doccol Corporation, CA) 10-11 mm from the internal carotid artery bifurcation via an external carotid artery stump. We monitored rectal temperatures with a temperature control system (Fine Science Tools, Canada), maintaining the temperature at approximately 37° C. during surgery with an automatic heating pad. We used laser doppler flowmetry (DRT 4/Moor Instruments Ltd, Devon, UK) to measure cerebral blood flow and to confirm occlusion (reduction to 15% of baseline cerebral blood flow) and reperfusion. All animals were fed with wet mash for one week after surgery to ensure adequate nutrition for chronic endpoints, as animals have rearing deficits after stroke. In sham mice, we performed identical surgeries except the suture was not advanced into the internal carotid artery. For the gonadal hormone-mediated outcome study, we ovariectomized (ovxed) female mice two weeks prior to stroke surgery.
Neurological deficit score: The neurological deficit (ND) score is a crude assessment of post-stroke behavioral recovery. We recorded ND scores, ranging from 0 to 4, at several time points after stroke. Our standard scoring system was as follows: 0, no deficit; 1, forelimb weakness and torso turning to the ipsilateral side when held by the tail; 2, circling to affected side; 3, unable to bear weight on affected side; and 4, no spontaneous locomotor activity or barrel rolling.
Male C57B/6 (2-3 month old; 22-28 g) mice were used in this experiment. The ischemia duration was 60 minutes, with reperfusion for 72 hours. […]

Solubility in water/PBS = assay type: physicochemical
[2] = test system: Middle Cerebral Artery occlusion (MCAo) model, male C57B/6 mice; experiment: Infarct volume after middle cerebral artery occlusion (MCAo) stroke; assay type: in vivo; settings: 60 min ischemia, 72 h reperfusion, vs vehicle
Excerpt: as §1
Cresyl violet staining for infarct volume and tissue atrophy analysis: We measured tissue infarct (day 3) or tissue atrophy (day 30) after stroke as described in the art. Briefly, we sacrificed the mice after stroke surgery with an overdose of Avertin (250 mg/kg intraperitoneally, i.p). After blood collection by cardiac puncture, we performed trans-cardiac perfusion on the mice using cold phosphate buffered saline (PBS) followed by 4% paraformaldehyde. Brains were then fixed overnight and placed in cryoprotectant (30% sucrose in PBS) for 72 hours before processing. We then sliced the brains into 30-μm free-floating sections using a freezing microtome; every eighth slice was mounted and stained with cresyl violet. […]

[3] = test system: Middle Cerebral Artery occlusion (MCAo) model, male C57B/6 mice; experiment: Rotarod test (sensorimotor deficit) after MCAo stroke; assay type: in vivo; settings: 0.5 mg/kg p.o./day for 3 days, first dose 4 hour after stroke; reperfusion 30 days, measured weekly; drug vs vehicle
Excerpt: (§2) Sensory motor deficit test: We used the open field test (OFT) and rotarod test to measure spontaneous locomotor activity/anxiety-like behavior and motor balance coordination, respectively, at baseline and post-mcao days 2, 7, 14, 21, and 28. As the OFT is a non-stressful test, we performed the OFT prior to the rotarod test, on the same day with one hour difference between tests.
Rotarod test: The rotarod test examines motor coordination in mice. We placed mice on a rotating cylindrical rod accelerating from two to ten rotations per minute, over a span of five minutes. Each subject performed two trials with a 20-minute break between the two trials. We recorded the latency to fall from the rotating rod for each trial (in seconds), and used the mean latency for comparison between groups.
Male C57B/6 (2-3 month old; 22-28 g) mice were used in a Middle Cerebral Artery occlusion (MCAo) model. The ischemia duration was 60 mins and the reperfusion was 30 days. The drug was 5-BDBD- (0.5 mg/kg p.o./day in 1% DMSO and 0.5% methyl cellulose suspension) administered for 3 days. The first dose was given at 4 hour after stroke. Vehicle was 1% DMSO in 0.5% methyl cellulose (n=5 Behaviors were measured weekly using methods described above. (n=7).

[4] = test system: Middle Cerebral Artery occlusion (MCAo) model, male C57B/6 mice; experiment: Open field test (exploratory activity, anxiety-like behavior) after MCAo stroke; assay type: in vivo; settings: first dose 4 hour after stroke, reperfusion 30 days
Excerpt: as §2
Open field test: The OFT is a common measure of exploratory behavior and general activity in rodents, which can be used both qualitatively and quantitatively. Briefly, we placed mice in a corner of a clear acrylic box (16″×16″) and allowed them to explore the box for ten minutes. We quantified locomotor activity as the total number of beam breaks by a computer-operated, open-field photobeam activity system (San Diego Instruments, San Diego, Calif.). We calculated the percentage of beam breaks in the center zone (16/3″×16/3″) compared to the total as a measure of anxiety-like behavior. Importantly, OFT tests can be administered at several time points to view trends without hindrance by habituation.
Male C57B/6 (2-3 month old; 22-28 g) mice were used in a Middle Cerebral Artery occlusion (MCAo) model. The ischemia duration was 60 mins and the reperfusion was 30 days. […] Vehicle was 1% DMSO in 0.5% methyl cellulose (n=5 Behaviors were measured weekly using methods described above. (n=7).

[5] = 0.5 mg/kg p.o./day for 3 days, first dose 4 hour after stroke, cresyl violet

SMILES | ND score ([1]; 0.5-5 mg/kg in 1xPBS via Alzet mini osmotic pump (SC) for 3 days, after 3 days of stroke, vs vehicle) | solubility (Solubility in water/PBS) | stroke infarct size ([2]; 0.5-5 mg/kg in 1xPBS via Alzet mini osmotic pump (SC) for 3 days, TTC) | rotarod test (test for sensorimotor deficit) [3] | Neurological deficit score measured after 3 days of stroke ([1]; 0.5 mg/kg p.o./day for 3 days, first dose 4 hour after stroke, 60 min ischemia, vs vehicle) | neurological deficit (ND) score ([1]; oral 0.5 mg/kg daily for 5 days beginning on the day of stroke, MCAo 60 minute followed by reperfusion) | post stroke anxiety (% C/P = % time spent in center/time spent in periphery) ([4]; 0.5 mg/kg p.o./day for 3 days (acute treatment)) | total exploratory activity ([4]; 0.5 mg/kg p.o./day for 3 days, drug vs vehicle) | cortical infarct volume [2, 5] | hemispheric infarct volume [2, 5]
O=C1CC(=O)N(c2cccc(-c3noc(=S)[nH]3)c2)c2ccc3ccccc3c2N1 [NP-1815-PX, 5-[3-(5-thioxo-4H-[1,2,4]oxadiazol-3-yl)phenyl]-1H-naphtho[1,2-b][1,4]diazepine-2,4(3H,5H)-dione] | improve | Water/PBS Soluble | could reduce | – | – | – | – | – | – | –
O=C1CN=C(c2cccc(Br)c2)c2oc3ccccc3c2N1 [5-BDBD, 5-(3-Bromophenyl)-1,3-dihydro-2H-Benzofuro[3,2-e]-1,4-diazepin-2-one] | – | – | – | overall significant difference | reduces | improved significantly | reduces post stroke anxiety up to a month | similar | reduces | reduces
